Assay results from ChEMBL document CHEMBL1126745, “2,2-Dialkylnaphthalen-1-ones as new potassium channel activators” (J Med Chem, 1993).

Columns and labels:
[1] = species: Rattus norvegicus; experiment: Percentage of inhibition of noradrenaline-induced contractions in rat portal vein at 10 uM (in vitro); type: functional
[2] = tested on: Rattus norvegicus; experiment: Change in systolic blood pressure at intervals of 1 hr after oral administration of 1 mg/kg of compound in spontaneously hypertensive rats (in vivo); Not significant; type: functional, Artery
[3] = tested on: Rattus norvegicus; experiment: Change in systolic blood pressure at intervals of 1 hr after oral administration of 1 mg/kg of compound in spontaneously hypertensive rats (in vivo); type: functional, Artery
[4] = species: Rattus norvegicus; experiment: In vitro inhibition of noradrenaline-induced contractions in rat portal vein; type: functional
[5] = species: Cavia porcellus; experiment: In vitro inhibition of spontaneous tone of guinea pig tracheal spirals; type: functional; details: Trachea

Structure (SMILES) | inhibition at 10 µM [1] [%] | Delta blood pressure [2] [mmHg] | Max fall in blood pressure [3] [mmHg] | IC50 [4] [µM] | IC50 [5] [µM] | Delta blood pressure [3] [mmHg]
COc1ccc2c(c1)C(N1CCCC1=O)=CC(C)(C)C2=O | 20 | <20 |  |  |  | 
CC1(C)C=C(N2Cc3ccccc3C2=O)c2cc(C#N)ccc2C1=O |  |  | 34 | 0.6 | 1.3 | 
CC1(C)C(=O)c2ccccc2[C@@H](n2ccccc2=O)[C@@H]1O | 0 | <20 |  |  |  | 
CC1(C)C=C(N2CCCC2=O)c2cc(Br)ccc2C1=O |  |  |  | 10 | 7.3 | 
CC1(C)C(=O)c2ccc(S(=O)(=O)c3ccccc3)cc2[C@@H](n2ccccc2=O)[C@@H]1O |  |  |  | 0.3 | 0.7 | 
CC1(C)C(=O)c2ccc(C#N)cc2[C@@H](NC(=O)c2ccccn2)[C@@H]1O |  |  |  | 23 | > 10 | 
CNc1ccc2c(c1)C(n1ccccc1=O)=CC(C)(C)C2=O |  | <20 |  | 52 | 9.1 | 
CC1(C)C(=O)c2ccc(C#N)cc2[C@@H](NC(=O)c2ccccc2)[C@@H]1O |  |  | 31 |  | 1.8 | 
CC(=O)N[C@@H]1c2cc(C#N)ccc2C(=O)C(C)(C)[C@H]1O |  |  | 28.6 | 45 | 8.7 | 
CC1(C)C(=O)c2ccc(Br)cc2C(N2CCCC2=O)[C@@H]1O (stereo partly specified) | 40 |  | 39 |  | > 10 | 
CC1(C)C=C(n2ccccc2=O)c2ccc(Br)cc2C1=O |  |  | 37 | 2.7 | 4.7 | 
CC1(C)C=C(N2CCCCC2=O)c2cc(Br)ccc2C1=O |  |  | 43.6 | 8 | 3.5 | 
CC1(C)C(=O)c2ccc(Cl)cc2[C@@H](n2ccccc2=O)[C@@H]1O | 0 |  |  |  |  | 
CC1(C)C(=O)c2ccc(Br)cc2[C@@H](n2ccccc2=O)[C@@H]1O |  |  | 31 | 28 | > 10 | 
CC1(C)C(=O)c2ccc(C#N)cc2[C@@H](Oc2ccccn2)[C@@H]1O |  |  | 43 | 25 | 5.5 | 
CC1(C)C(=O)c2ccc(C#N)cc2[C@@H](NC(=O)c2ccc(Cl)cc2Cl)[C@@H]1O | 35 | <20 |  |  | > 10 | 
CC1(C)C(=O)c2ccc(C#N)cc2[C@@H](OC2=CC(=O)CC2)[C@@H]1O | 9 |  |  |  | > 10 | 50
CC1(C)C=C(n2ccccc2=O)c2cc(S(=O)(=O)c3ccccc3)ccc2C1=O |  |  | 32.6 | 0.1 | 0.5 | 
CC1(C)C(=O)c2cc(Cl)c(Cl)cc2[C@@H](n2ccccc2=O)[C@@H]1O |  |  | 52 | 1.5 | 5 | 
CCC1(CC)CCc2cc(OC)ccc2C1=O |  |  | 83 | 8 | > 10 | 
CC1(C)C(=O)c2ccc(C#N)cc2[C@@H](NC(=O)c2ccncc2)[C@@H]1O | 39 | <20 |  |  | > 10 | 
CC1(C)C(=O)c2ccc(Br)cc2[C@@H](N2CCN=C2NC#N)[C@@H]1O | 8 |  | 27.6 |  | > 10 | 
CC1(C)C(=O)c2ccc(Br)cc2[C@@H](N2CCS/C2=N\C#N)[C@@H]1O | 26 |  | 30.5 |  |  | 

Structure (SMILES) | inhibition at 10 µM [1] [%] | Delta blood pressure [2] [mmHg] | Max fall in blood pressure [3] [mmHg] | IC50 [4] [µM] | IC50 [5] [µM] | Delta blood pressure [3] [mmHg]
CC(=O)N(C)c1ccc2c(c1)C(n1ccccc1=O)=CC(C)(C)C2=O |  |  | 74 | 4.3 | 3.1 | 
CC1(C)C(=O)c2ccc(C(F)(F)F)cc2[C@@H](n2ccccc2=O)[C@@H]1O |  |  |  |  | 1.4 | 
COC(=O)c1ccc2c(c1)C(n1ccccc1=O)=CC(C)(C)C2=O |  |  | 39 | 2.7 | 8.5 | 
CC1(C)C=C(n2ccccc2=O)c2cc(Br)ccc2C1(C)O (stereo unspecified) | 23 | <20 |  |  | 4.2 | 
CC1(C)C=C(N2CCCC2=O)c2cc(Cl)ccc2C1=O | 0 |  | 32.5 |  | > 10 | 
C=CCn1nc(O[C@@H]2c3cc(C#N)ccc3C(=O)C(C)(C)[C@H]2O)ccc1=O |  |  |  | 14 | 3.9 | 
COc1ccc(C(=O)N[C@@H]2c3cc(C#N)ccc3C(=O)C(C)(C)[C@H]2O)cc1 |  |  |  | 12 | 12.2 | 
CO/N=C1\c2ccc(C#N)cc2C(n2ccccc2=O)=CC1(C)C |  |  | 32.4 | 25 | > 10 | 
CC1(C)C=C(n2ccccc2=O)c2cc(C#N)ccc2/C1=N\O | 27 |  | 28 |  | 12.5 | 
CC(=O)N(C)c1ccc2c(c1)C(N1CCCC1=O)=CC(C)(C)C2=O |  |  | 23 | 17 | 2.5 | 
CC1(C)C(=O)c2ccc(Br)cc2[C@@H](N2Cc3ccccc3C2=O)[C@@H]1O |  |  | 24 | 3.1 | > 10 | 
CC1(C)C=C(n2ccccc2=O)c2cc(Cl)c(Cl)cc2C1=O |  |  | 58 | 0.7 | 0.1 | 
CCC1(CC)C=C(n2ccccc2=O)c2cc(Br)ccc2C1=O |  |  | 44 | 3.3 | 8 | 
C=Cc1ccc2c(c1)C(n1ccccc1=O)=CC(C)(C)C2=O |  |  | 30.6 | 1.5 | 4.6 | 
CC1(C)C(=O)c2ccc(C#N)cc2C(N2CCCC2=O)[C@@H]1O (stereo partly specified) | 12 |  | 23 |  | > 10 | 
CC1(C)C(=O)c2ccc(C#N)cc2[C@@H](n2ccccc2=O)[C@@H]1OC=O |  |  | 42 |  | 4.3 | 
CC(=O)O[C@H]1[C@H](n2ccccc2=O)c2cc(C#N)ccc2C(=O)C1(C)C |  |  |  | 23 | 2 | 
COC1c2ccc(Br)cc2C(n2ccccc2=O)=CC1(C)C (stereo unspecified) | 22 |  | 28 |  | 17 | 
CC1(C)C=C(NC(=O)c2ccccn2)c2cc(C#N)ccc2C1=O |  |  | 22.5 | 9 | 3.1 | 
CC1(C)C=C(n2ccccc2=O)c2cc(Cl)ccc2C1=O |  |  | 53.7 | 1.4 | 1.1 | 
CC(=O)N(C)c1ccc2c(c1)[C@@H](n1ccccc1=O)[C@H](O)C(C)(C)C2=O |  |  | 94 | 33 | > 10 | 
CC1(C)C(=O)c2ccc(C#N)cc2[C@@H](NC(=O)c2ccoc2)[C@@H]1O | 24 |  | 58 |  |  | 
CC1(C)C=C(N2CCCC2=O)c2ccc(C#N)cc2C1=O | 0 |  | 24.5 |  |  | 

Structure (SMILES) | inhibition at 10 µM [1] [%] | Delta blood pressure [2] [mmHg] | Max fall in blood pressure [3] [mmHg] | IC50 [4] [µM] | IC50 [5] [µM] | Delta blood pressure [3] [mmHg]
CCC1(CC)C=C(n2ccccc2=O)c2cc(C#N)ccc2C1=O |  |  | 35.6 | 7.8 | 2.6 | 
CC1(C)C(=O)c2ccc(Br)cc2[C@@H](Oc2ccccn2)[C@@H]1O | 32 |  | 33 |  |  | 
CCc1ccc2c(c1)C(n1ccccc1=O)=CC(C)(C)C2=O |  |  | 58 | 5.5 | 5.1 | 
CC1(C)C(=O)c2ccc(F)cc2[C@@H](n2ccccc2=O)[C@@H]1O | 0 |  | 21.5 |  |  | 
COc1ccc2c(c1)C(n1ccccc1=O)=CC(C)(C)C2=O |  |  |  | 21 | 3.1 | 
CC1(C)C=C(n2ccccc2=O)c2cc(F)ccc2C1=O |  |  | 35 | 19 | 3.9 | 
COC(=N)c1ccc2c(c1)C(n1ccccc1=O)=CC(C)(C)C2=O |  |  |  | 11 | 3.1 | 27.5
CC1(C)C=C(n2ccccc2=O)c2cc(C(=O)O)ccc2C1=O | 0 | <20 |  |  | > 10 | 
CC1(C)C(=O)c2ccc(C#N)cc2[C@@H](NC(=O)c2cccnc2)[C@@H]1O |  |  | 50 | 2.8 | 4.1 | 
CC1(C)C(=O)c2ccc(Br)cc2[C@@H](Oc2ccc(=O)[nH]n2)[C@@H]1O |  |  |  | 0.8 | 4.4 | 
COc1ccc2c(c1)[C@@H](n1ccccc1=O)[C@H](O)C(C)(C)C2=O | 0 |  | 42.9 |  | > 10 | 
CC1(C)C=C(N2CCCC2=O)c2ccc(Br)cc2C1=O | 11 |  | 54.5 |  | > 10 | 
CC1(C)C(=O)c2ccc(C#N)cc2[C@@H](NC(=O)c2ccc([N+](=O)[O-])cc2)[C@@H]1O |  | <20 |  | 4.9 | 7.9 | 
CC1(C)C=C(N2CCCC2=O)c2ccccc2C1=O | 0 | <20 |  |  |  | 
Cn1nc(OC2=CC(C)(C)C(=O)c3ccc(C#N)cc32)ccc1=O | 0 |  |  |  |  | 24
CC1(C)C=C(n2ccccc2=O)c2ccc(C#N)cc2C1=O | 0 |  | 41 |  | > 10 | 
CC(=O)c1ccc2c(c1)C(n1ccccc1=O)=CC(C)(C)C2=O |  |  | 56.5 | 3.3 | 1 | 
CC1(C)C(=O)c2ccc(C#N)cc2[C@@H](N2Cc3ccccc3C2=O)[C@@H]1O |  |  | 76 | 0.5 | 1.1 | 
CC1(C)C(=O)c2ccc(C#N)cc2[C@@H](n2ccccc2=O)[C@@H]1O |  |  | 84 | 14 | > 10 | 
CC1(C)C(=O)c2cc(Br)ccc2[C@@H](n2ccccc2=O)[C@@H]1O |  |  | 29.3 | 42 |  | 
CC(=O)O[C@H]1[C@H](n2ccccc2=O)c2cc(Br)ccc2C(=O)C1(C)C | 38 |  | 29 |  |  | 
